Measurements as given in ChEMBL document CHEMBL3046000, “Design and synthesis of 1-(benzothiazol-5-yl)-1H-1,2,4-triazol-5-ones as protoporphyrinogen oxidase inhibitors” (Bioorg Med Chem, 2013).

How the values were obtained:
Chenopodium album [1] = experiment: Post-emergence herbicidal activity against Chenopodium album seedlings assessed as plant growth inhibition at 75 g ai/ha measured 15 days after compound treatment under greenhouse conditions; assay type: functional; conditions: 360 h, read-out: GI
Chenopodium album [2] = experiment: Post-emergence herbicidal activity against Chenopodium album seedlings assessed as plant growth inhibition at 37.5 g ai/ha measured 15 days after compound treatment under greenhouse conditions; assay type: functional; conditions: 360 h, read-out: GI
Chenopodium album [3] = experiment: Post-emergence herbicidal activity against Chenopodium album seedlings assessed as plant growth inhibition at 150 g ai/ha measured 15 days after compound treatment under greenhouse conditions; assay type: functional; conditions: 360 h, read-out: GI
Amaranthus retroflexus [4] = experiment: Post emergence herbicidal activity against Amaranthus retroflexus seedlings assessed as plant growth inhibition at 75 g ai/ha measured 15 days after compound treatment under greenhouse conditions; assay type: functional; conditions: 360 h, read-out: GI
Amaranthus retroflexus [5] = experiment: Post emergence herbicidal activity against Amaranthus retroflexus seedlings assessed as plant growth inhibition at 37.5 g ai/ha measured 15 days after compound treatment under greenhouse conditions; assay type: functional; conditions: 360 h, read-out: GI
Amaranthus retroflexus [6] = experiment: Post emergence herbicidal activity against Amaranthus retroflexus seedlings assessed as plant growth inhibition at 150 g ai/ha measured 15 days after compound treatment under greenhouse conditions; assay type: functional; conditions: 360 h, read-out: GI
Brassica juncea [7] = experiment: Post-emergence herbicidal activity against Brassica juncea seedlings assessed as plant growth inhibition at 75 g ai/ha measured 15 days after compound treatment under greenhouse conditions; assay type: functional; conditions: 360 h, read-out: GI
Brassica juncea [8] = experiment: Post-emergence herbicidal activity against Brassica juncea seedlings assessed as plant growth inhibition at 37.5 g ai/ha measured 15 days after compound treatment under greenhouse conditions; assay type: functional; conditions: 360 h, read-out: GI
Brassica juncea [9] = experiment: Post-emergence herbicidal activity against Brassica juncea seedlings assessed as plant growth inhibition at 150 g ai/ha measured 15 days after compound treatment under greenhouse conditions; assay type: functional; conditions: 360 h, read-out: GI
Setaria faberi [10] = experiment: Post-emergence herbicidal activity against Setaria faberi (Giant Foxtail) seedlings assessed as plant growth inhibition at 75 g ai/ha measured 15 days after compound treatment under greenhouse conditions; assay type: functional; conditions: 360 h, read-out: GI
Setaria faberi [11] = experiment: Post-emergence herbicidal activity against Setaria faberi (Giant Foxtail) seedlings assessed as plant growth inhibition at 37.5 g ai/ha measured 15 days after compound treatment under greenhouse conditions; assay type: functional; conditions: 360 h, read-out: GI
Setaria faberi [12] = experiment: Post-emergence herbicidal activity against Setaria faberi (Giant Foxtail) seedlings assessed as plant growth inhibition at 150 g ai/ha measured 15 days after compound treatment under greenhouse conditions; assay type: functional; conditions: 360 h, read-out: GI
Digitaria sanguinalis [13] = experiment: Post-emergence herbicidal activity against Digitaria sanguinalis (hairy crabgrass) seedlings assessed as plant growth inhibition at 75 g ai/ha measured 15 days after compound treatment under greenhouse conditions; assay type: functional; conditions: 360 h, read-out: GI
Digitaria sanguinalis [14] = experiment: Post-emergence herbicidal activity against Digitaria sanguinalis (hairy crabgrass) seedlings assessed as plant growth inhibition at 37.5 g ai/ha measured 15 days after compound treatment under greenhouse conditions; assay type: functional; conditions: 360 h, read-out: GI
Digitaria sanguinalis [15] = experiment: Post-emergence herbicidal activity against Digitaria sanguinalis (hairy crabgrass) seedlings assessed as plant growth inhibition at 150 g ai/ha measured 15 days after compound treatment under greenhouse conditions; assay type: functional; conditions: 360 h, read-out: GI
Echinochloa crus-galli [16] = experiment: Post emergence herbicidal activity against Echinochloa crus-galli (barnyard grass) seedlings assessed as plant growth inhibition at 75 g ai/ha measured 15 days after compound treatment under greenhouse conditions; assay type: functional; conditions: 360 h, read-out: GI
Echinochloa crus-galli [17] = experiment: Post emergence herbicidal activity against Echinochloa crus-galli (barnyard grass) seedlings assessed as plant growth inhibition at 37.5 g ai/ha measured 15 days after compound treatment under greenhouse conditions; assay type: functional; conditions: 360 h, read-out: GI
Echinochloa crus-galli [18] = experiment: Post emergence herbicidal activity against Echinochloa crus-galli (barnyard grass) seedlings assessed as plant growth inhibition at 150 g ai/ha measured 15 days after compound treatment under greenhouse conditions; assay type: functional; conditions: 360 h, read-out: GI
[19] = molecular target: T1, Protoporphyrinogen oxidase, chloroplastic (Nicotiana tabacum, UniProt O24163); experiment: Inhibition of Nicotiana tabacum (tobacco) recombinant PPO assessed as protoporphyrin IX formation at room temperature by fluorimetric assay
T1 sequence (O24163 whole entry): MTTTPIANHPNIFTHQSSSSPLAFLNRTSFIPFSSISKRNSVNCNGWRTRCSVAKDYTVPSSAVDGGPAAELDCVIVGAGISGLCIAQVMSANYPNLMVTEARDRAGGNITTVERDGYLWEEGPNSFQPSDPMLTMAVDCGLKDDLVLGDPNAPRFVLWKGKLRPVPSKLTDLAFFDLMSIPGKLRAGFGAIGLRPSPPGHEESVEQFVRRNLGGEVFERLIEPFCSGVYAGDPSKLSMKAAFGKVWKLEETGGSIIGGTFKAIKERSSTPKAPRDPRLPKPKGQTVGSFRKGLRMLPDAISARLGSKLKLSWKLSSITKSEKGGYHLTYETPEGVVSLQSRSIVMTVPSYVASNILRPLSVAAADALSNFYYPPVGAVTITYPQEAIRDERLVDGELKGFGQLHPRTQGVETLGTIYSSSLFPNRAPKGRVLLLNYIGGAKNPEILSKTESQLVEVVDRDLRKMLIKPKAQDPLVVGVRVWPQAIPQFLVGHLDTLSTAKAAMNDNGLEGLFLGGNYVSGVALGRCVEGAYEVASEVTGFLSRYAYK

| SMILES | inhibition of growth at 75 g/ha (Chenopodium album [1]) | inhibition of growth at 37.5 g/ha (Chenopodium album [2]) | inhibition of growth at 150 g/ha (Chenopodium album [3]) | inhibition of growth at 75 g/ha (Amaranthus retroflexus [4]) | inhibition of growth at 37.5 g/ha (Amaranthus retroflexus [5]) | inhibition of growth at 150 g/ha (Amaranthus retroflexus [6]) | inhibition of growth at 75 g/ha (Brassica juncea [7]) | inhibition of growth at 37.5 g/ha (Brassica juncea [8]) | inhibition of growth at 150 g/ha (Brassica juncea [9]) | inhibition of growth at 75 g/ha (Setaria faberi [10]) | inhibition of growth at 37.5 g/ha (Setaria faberi [11]) | inhibition of growth at 150 g/ha (Setaria faberi [12]) | inhibition of growth at 75 g/ha (Digitaria sanguinalis [13]) | inhibition of growth at 37.5 g/ha (Digitaria sanguinalis [14]) | inhibition of growth at 150 g/ha (Digitaria sanguinalis [15]) | inhibition of growth at 75 g/ha (Echinochloa crus-galli [16]) | inhibition of growth at 37.5 g/ha (Echinochloa crus-galli [17]) | inhibition of growth at 150 g/ha (Echinochloa crus-galli [18]) | Ki [19] |
| --- | --- | --- | --- | --- | --- | --- | --- | --- | --- | --- | --- | --- | --- | --- | --- | --- | --- | --- | --- |
| Cc1nn(-c2cc3nc(SC(C)C(=O)O)sc3cc2F)c(=O)n1C(F)F (stereo unspecified) | ≥ 90% | 50% | ≥ 90% | ≥ 90% | ≥ 90% | ≥ 90% | ≥ 90% | ≥ 90% | ≥ 90% | 60% | 60% | ≥ 90% | < 50% | < 50% | ≥ 90% | 60% | 60% | ≥ 90% | 1.21 µM |
| COC(=O)CSc1nc2cc(-n3nc(C)n(C(F)F)c3=O)c(F)cc2s1 | ≥ 90% | < 50% | ≥ 90% | ≥ 90% | ≥ 90% | ≥ 90% | ≥ 90% | 60% | ≥ 90% | 60% | 60% | ≥ 90% | < 50% | < 50% | ≥ 90% | 60% | 60% | ≥ 90% | 1.08 µM |
| COC(=O)CSc1nc2cc(-n3nc(C)n(C(F)F)c3=O)c(Cl)cc2s1 | ≥ 90% | ≥ 90% | 60% | ≥ 90% | 60% | ≥ 90% | 80% | 60% | ≥ 90% | 50% | 50% | ≥ 90% | < 50% | < 50% | ≥ 90% | 50% | 50% | ≥ 90% | 15.2 µM |
| CCOC(=O)CSc1nc2cc(-n3nc(C)n(C(F)F)c3=O)c(Br)cc2s1 | ≥ 90% | ≥ 90% | ≥ 90% | ≥ 90% | ≥ 90% | ≥ 90% | 80% | 80% | ≥ 90% | 60% | 50% | 80% | 60% | 50% | 80% | 60% | 50% | 50% | 8 µM |
